Experimental data as given in patent US10667515B2, “(S)-5-ethynyl-anabasine, derivatives thereof, and related compositions and methods of making and using” (priority 2016, dated 2020).
Entries after “also recorded” stand apart in the source; their conditions may differ. Structures can show the parent of a compound that is named as a salt. Where two headings read alike, the source gives them in different places.

Experiments:
[1] = target: T1, Asu-ACR-16 (Ascaris suum (Pig roundworm) (Ascaris lumbricoides), UniProt F1KYJ9); assay: cell-based; format: cell-based; details: for Emax: read-out: maximum response (Imax); for maximum response (Imax): normalized to peak current of 100 μM ACh
T1 sequence (F1KYJ9 1-504): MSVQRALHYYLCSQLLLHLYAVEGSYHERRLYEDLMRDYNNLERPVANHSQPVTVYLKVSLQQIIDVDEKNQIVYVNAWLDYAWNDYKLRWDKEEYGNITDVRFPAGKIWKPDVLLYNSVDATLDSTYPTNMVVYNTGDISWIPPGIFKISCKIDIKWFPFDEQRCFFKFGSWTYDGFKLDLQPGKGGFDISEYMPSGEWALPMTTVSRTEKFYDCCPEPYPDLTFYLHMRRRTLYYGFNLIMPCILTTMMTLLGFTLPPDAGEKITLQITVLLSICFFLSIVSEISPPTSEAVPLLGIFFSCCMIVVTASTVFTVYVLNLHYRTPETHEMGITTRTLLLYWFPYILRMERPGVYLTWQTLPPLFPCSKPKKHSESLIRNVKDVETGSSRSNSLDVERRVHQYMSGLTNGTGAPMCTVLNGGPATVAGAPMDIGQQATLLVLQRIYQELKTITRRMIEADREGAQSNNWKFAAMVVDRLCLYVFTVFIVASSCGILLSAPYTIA
Experimental: Full-length Asu-acr-16 cRNA and ancillary gene Asu-ric-3 cRNA (UniProtKB Accession No. F1L1D9) were prepared as previously described (Zheng et al. (2016), supra). A cRNA mixture of 25 ng Asu-acr-16 and 5 ng Asu-ric-3 cRNA in 50 nL RNAse-free water was injected into de-folliculated Xenopus laevis oocytes (Ecocyte Bioscience, Austin, Tex., USA). The injected oocytes were incubated in an incubation solution (100 mM NaCl, 2 mM KCl, 1.8 mM CaCl2.2H2O, 1 mM MgCl2.6H20, 5 mM HEPES, 2.5 mM Na-pyruvate, 100 U/mL penicillin, and 100 μg/mL streptomycin, pH 7.5) at 19° C. for 4-8 days, after which 100 μM BAPTA-AM was added three hours before recording.
Two-electrode voltage clamp electrophysiology was used to determine agonist concentration-current-response plots to estimate the potencies (EC50s) of the agonists. The oocytes were kept in a recording solution (100 mM NaCl, 2.5 mM KCl, 1 mM CaCl2.2H2O, and 5 mM HEPES, pH 7.3) and clamped to −60 mV during recording.
Inward current signals in the oocytes were induced by the addition of chemicals that acted as agonists opening the nicotinic ion-channel receptors. […] An Axoclamp 2B amplifier (Molecular Devices, Sunnyvale, Calif.) was used to record the currents that were acquired with Clampex 9.2 software (Molecular Devices) and analyzed using GraphPad Prism 5.0 (Graphpad Software, Inc., La Jolla, Calif.).
Recording solution was then used to wash out the drug from the oocyte for 3 min prior to application of the next chemical perfusion.
Nicotine derivatives that elicited inward currents at 100 μM were classified as agonists. Increasing concentrations of each nicotine derivative were applied for 10 sec with 3-min wash intervals to determine the dose-response relationship of each agonist. […] Peak responses were recorded and normalized. […] The EC50 and Imax of each agonist were compared using the unpaired student's t-test. P<0.05 was used to evaluate the statistical difference.

[2] = target: T1, Asu-ACR-16; assay: Two-electrode voltage clamp inhibition of the ACh response of Asu-ACR-16 expressed in Xenopus laevis oocytes; format: cell-based
[3] = agonist dose-response, mean±S.E.M., N=5
[4] = agonist, currents normalized to 100 μM ACh, oocytes clamped to −60 mV, mean±S.E.M., N=5
[5] = inward currents at 100 μM classify as agonist
[6] = inhibition of ACh response, N=5

SMILES	Hill slope (nH) [1, 3]	Emax [1] [%]	maximum response (Imax) ([1]; mean±S.E.M., N=5) [%]	also measured
CN1CCCC1c1cccnc1.O=C(O)C(O)C(O)C(=O)O (single isomer, unassigned; (-)) [(S)-nicotine, (−)-nicotine hydrogen tartrate salt]				Hill slope (nH) [1]: 3.39 ± 0.36; agonist activity (in words) [1]: potent agonist
Cc1cncc(C2CCCN2C)c1 (stereo not shown) [5-methyl-nicotine, 5-methylnicotine]	2.09 ± 0.14	76 ± 1.22		EC50 [1, 4]: 990 ± 170 nM
NC(=O)c1ccc(N)nc1 [6-AN, 6-aminonicotinamide]	10.10 ± 0.15	6.29 ± 0.62		agonist activity (in words) [1, 5]: little agonist activity; IC50 [2]: 2000 ± 410 nM; inhibition of ACh response (in words) ([2]; 100 μM derivative co-applied with 100 μM ACh): most potent inhibitor; mode of antagonism (in words) ([2]; ACh dose-response in presence of 1 μM 6-AN, concentration- and voltage-dependent inhibition): non-competitive antagonist; Imax [2, 6]: 94.88±1.49%; nH [2, 6]: 1.02±0.05
Cc1ccc(C2CCCN2C)cn1 (stereo not shown) [6-methyl-nicotine, 6-methylnicotine]	3.25 ± 0.25	69.8 ± 1.56		
CN1CCC[C@H]1c1ccc[n+](C)c1.[I-] [(S)-1-methyl-nicotinium, (S)-1-methylnicotinium iodide]				agonist activity (in words) [1, 5]: did not act as agonists
C[N+]1(C)CCC[C@H]1c1cccnc1.[I-] [(S)-1′-methyl-nicotinium, (S)-1′-methylnicotinium iodide]	3.52 ± 0.26		93.38 ± 5.25	
Brc1cncc([C@@H]2CCCCN2)c1 [(S)-5-bromo-anabasine, (S)-5-bromoanabasine]	4.19 ± 1.58		80.69 ± 2.87	
CN1CCC[C@H]1c1cncc(Br)c1 [(S)-5-bromo-nicotine, (S)-5-bromonicotine]	2.46 ± 0.21	69.7 ± 3.28		EC50 [1, 4]: 2040 ± 120 nM
C#Cc1cncc([C@@H]2CCCCN2)c1 [(S)-5-ethynyl-anabasine]	1.81 ± 0.24		79.33 ± 3.75	EC50 lower (more potent) than (S)-nicotine ([1]; ratio of EC50 values): 44 times
C#Cc1cncc([C@@H]2CCCN2C)c1 [(S)-SIB 1508Y, SIB 1508Y maleate]	0.94 ± 0.04		100.1 ± 4.36	EC50 [1, 4]: 370 ± 100 nM
c1cncc([C@@H]2CCCCN2)c1 [(S)-anabasine]	2.26 ± 0.20		84.82 ± 4.20	
CN1C(=O)CC[C@H]1c1cccnc1 [(S)-cotinine, (−)-cotinine]				agonist activity (in words) [1, 5]: did not act as agonists
CN1CCC[C@H]1c1cccnc1 [(S)-nicotine, (−)-nicotine hydrogen tartrate salt]		82.4 ± 2.52		EC50 [1]: 6210 ± 560 nM
CN1CCC[C@H]1c1cncc(C=O)c1 [(S)-nicotine-5-carboxaldehyde]	8.61 ± 4.04		62.20 ± 6.80	EC50 [1, 4]: 11500 ± 630 nM
CC(=O)OCC[N+](C)(C)C.[Cl-] [ACh, acetylcholine chloride]	2.93 ± 0.13			
CN1CCCCC1c1cccnc1 (stereo not shown) [N-methyl-anabasine, N-methyl anabasine]				agonist activity (in words) [1, 5]: inactive; also recorded: did not act as agonists
CCN1CCCC1c1cccnc1 (stereo not shown) [homonicotine]	6.78 ± 2.50		22.01 ± 1.39	
c1cncc([C@@H]2CCCN2)c1 [nornicotine, (+)-nornicotine]	3.25 ± 0.49	62.6 ± 3.42		
